Measurements from paper PMC11110756 (RSC Advances, 2024).
Where two headings read alike, the source gives them in different places.

Tests used:
[1] = system: A549; assay: MTT assay, antiproliferative activity on lung cancer A549; assay type: cell-based, human; details: for cytotoxicity level in words, A549: text grading
[2] = system: Caco-2; assay: MTT assay, antiproliferative activity on colorectal cancer Caco-2; assay type: cell-based, human; details: for cytotoxicity level in words, Caco-2: text grading; for SI (CaCo-2): selectivity index WI38 vs CaCo-2
[3] = system: WI38; assay: MTT assay, cytotoxicity on normal lung fibroblast WI38; assay type: cell-based, human; details: read-out: IC50 WI38
[4] = system: A549; details: read-out: IC50 A549; reference drug; cited from earlier work
[5] = Homo sapiens, A549, read-out: IC50 A549
[6] = Homo sapiens, Caco-2, read-out: IC50 CaCo-2

| Compound | IC50 [1, 5] [µM] | IC50 [2, 6] [µM] | cytotoxicity level in words, Caco-2 ([2]; MTT) | SI (CaCo-2) [2] | IC50 ([3]; Homo sapiens, WI-38, 72 h) [µM] | cytotoxicity level in words, A549 ([1]; MTT) | IC50 ([1]; read-out: IC50 A549, MTT, lung cancer A549) [µM] | IC50 ([2]; read-out: IC50 CaCo-2, MTT, colorectal cancer Caco-2) [µM] | IC50 ([3]; MTT, normal lung fibroblast WI38, 72 h) [µM] | IC50 [4] [µM] |
| --- | --- | --- | --- | --- | --- | --- | --- | --- | --- | --- |
| CCOC(=O)Cn1cc(COc2ccccc2-c2nc(-c3ccccc3)no2)nn1 [Compound 5a, Ethyl 2-(4-((2-(3-phenyl-1,2,4-oxadiazol-5-yl)phenoxy)methyl)-1H-1,2,3-triazol-1-yl)acetate] | 7.4 | 26.3 | moderate | 0.54 | 14.3 |  |  |  |  |  |
| CCOC(=O)Cn1cc(COc2ccccc2-c2nc(Cc3ccccc3)no2)nn1 [Compound 5b, Ethyl 2-(4-((2-(3-benzyl-1,2,4-oxadiazol-5-yl)phenoxy)methyl)-1H-1,2,3-triazol-1-yl)acetate] | 10.5 | 47.7 | moderate | 0.41 | 19.5 |  |  |  |  |  |
| NC(=O)Cn1cc(COc2ccccc2-c2nc(-c3ccccc3)no2)nn1 [Compound 6a, 2-(4-((2-(3-Phenyl-1,2,4-oxadiazol-5-yl)phenoxy)methyl)-1H-1,2,3-triazol-1-yl)acetamide] | 12.7 | 14.1 |  | 2.11 | 29.8 |  |  |  |  |  |
| NC(=O)Cn1cc(COc2ccccc2-c2nc(Cc3ccccc3)no2)nn1 [Compound 6b, 2-(4-((2-(3-Benzyl-1,2,4-oxadiazol-5-yl)phenoxy)methyl)-1H-1,2,3-triazol-1-yl)acetamide] | 3.56 | 11.5 |  | 1.38 | 15.9 |  |  |  |  |  |
| O=C(O)Cn1cc(COc2ccccc2-c2nc(-c3ccccc3)no2)nn1 [Compound 7a, 2-(4-((2-(3-Phenyl-1,2,4-oxadiazol-5-yl)phenoxy)methyl)-1H-1,2,3-triazol-1-yl)acetic acid] | 210 | 98.1 | weak to inactive | 0.23 | 22.4 | weak to inactive |  |  |  |  |
| O=C(O)Cn1cc(COc2ccccc2-c2nc(Cc3ccccc3)no2)nn1 [Compound 7b, 2-(4-((2-(3-Benzyl-1,2,4-oxadiazol-5-yl)phenoxy)methyl)-1H-1,2,3-triazol-1-yl)acetic acid] | 86 | 173 | weak to inactive | 0.48 | 83.8 | weak to inactive |  |  |  |  |
| NNC(=O)Cn1cc(COc2ccccc2-c2nc(-c3ccccc3)no2)nn1 [Compound 8a, 2-(4-((2-(3-Phenyl-1,2,4-oxadiazol-5-yl)phenoxy)methyl)-1H-1,2,3-triazol-1-yl)acetohydrazide] | 13.1 | 12.9 |  | 2.38 | 30.6 |  |  |  |  |  |
| NNC(=O)Cn1cc(COc2ccccc2-c2nc(Cc3ccccc3)no2)nn1 [Compound 8b, 2-(4-((2-(3-Benzyl-1,2,4-oxadiazol-5-yl)phenoxy)methyl)-1H-1,2,3-triazol-1-yl)acetohydrazide] | 4.27 | 4.44 |  | 0.81 | 3.6 |  |  |  |  |  |
| O=C(Cn1cc(COc2ccccc2-c2nc(-c3ccccc3)no2)nn1)NN=Cc1ccccc1O [Compound 9a, N′-(2-Hydroxybenzylidene)-2-(4-((2-(3-phenyl-1,2,4-oxadiazol-5-yl)phenoxy)methyl)-1H-1,2,3-triazol-1-yl)acetohydrazide] | 6.52 | 3.37 |  | 1.81 | 6.1 |  |  |  |  |  |
| O=C(Cn1cc(COc2ccccc2-c2nc(Cc3ccccc3)no2)nn1)NN=Cc1ccccc1O [Compound 9b, 2-(4-((2-(3-Benzyl-1,2,4-oxadiazol-5-yl)phenoxy)methyl)-1H-1,2,3-triazol-1-yl)-N'-(2-hydroxybenzylidene)acetohydrazide] | 2.51 | 2.89 |  | 0.73 | 2.12 |  |  |  |  |  |
| Cc1c(O)ncc(COP(=O)([O-])O)c1C=NNC(=O)Cn1cc(COc2ccccc2-c2nc(-c3ccccc3)no2)nn1.[Na+] [Compound 10a, Sodium-(6-hydroxy-5-methyl-4-((2-(2-(4-((2-(3-phenyl-1,2,4-oxadiazol-5-yl)phenoxy)methyl)-1H-1,2,3-triazol-1-yl)acetyl)hydrazonol)methyl)pyridin-3-yl)methyl hydrogen phosphate] |  |  | moderate | 0.34 |  | moderate | 29.5 | 26.7 | 9.02 |  |
| Cc1c(O)ncc(COP(=O)([O-])O)c1C=NNC(=O)Cn1cc(COc2ccccc2-c2nc(Cc3ccccc3)no2)nn1.[Na+] [Compound 10b, Sodium-(4-((2-(2-(4-((2-(3-benzyl-1,2,4-oxadiazol-5-yl)phenoxy)methyl)-1H-1,2,3-triazol-1-yl)acetyl)hydrazineylidene)methyl)-6-hydroxy-5-methylpyridin-3-yl)methyl hydrogen phosphate] | 37.3 | 44.5 | moderate | 0.74 | 32.8 | moderate |  |  |  |  |
| O=C(Cn1cc(COc2ccccc2-c2nc(-c3ccccc3)no2)nn1)NNC(=S)Nc1ccccc1 [Compound 11a, N-Phenyl-2-(2-(4-((2-(3-phenyl-1,2,4-oxadiazol-5-yl)phenoxy)methyl)-1H-1,2,3-triazol-1-yl)acetyl)hydrazine-1-carbothioamide] | 12.4 | 32.2 | moderate | 0.67 | 21.6 |  |  |  |  |  |
| O=C(Cn1cc(COc2ccccc2-c2nc(Cc3ccccc3)no2)nn1)NNC(=S)Nc1ccccc1 [Compound 11b, 2-(2-(4-((2-(3-Benzyl-1,2,4-oxadiazol-5-yl)phenoxy)methyl)-1H-1,2,3-triazol-1-yl)acetyl)-N-phenylhydrazine-1-carbothioamide] | 10.3 | 16.4 |  | 2.08 | 34 |  |  |  |  |  |
| COc1cccc2c1C(=O)c1c(O)c3c(c(O)c1C2=O)C[C@@](O)(C(=O)CO)C[C@@H]3O[C@H]1C[C@H](N)[C@H](O)[C@H](C)O1 [Doxorubicin, reference compound] | 1 | 1.3 |  | 3.32 | 4.32 |  |  |  |  |  |
| COc1cc([C@@H]2c3cc4c(cc3[C@@H](O[C@@H]3O[C@@H]5CO[C@@H](C)O[C@H]5[C@H](O)[C@H]3O)[C@H]3COC(=O)[C@H]23)OCO4)cc(OC)c1O [etoposide] |  |  |  |  |  |  |  |  |  | 3.08 |
